Consider one compound from patent publication US20070249678A1, “SYNTHESIS AND USES OF PYROGLUTAMIC ACID DERIVATIVES” (Prodimed, S.A., priority 2006, published 2007).

A short description of the series: Solubility observed during purification attempts. It is filed as physicochemical. As to conditions: mixture of stereoisomers. An excerpt:
Also, its immediate precursor BLAS-320(Ac) (1-(1-acetyl-3-acetylamino-5-carboxy-2-oxopyrrolidin-3-ylmethyl)pyridinium acetate) [drawing 7] was synthesized using different procedures.

Take `CC(=O)NC1(C[n+]2ccccc2)CC(C(=O)O)N(C(C)=O)C1=O` (stereo not shown) [BLAS-320(Ac), 1-(1-acetyl-3-acetylamino-5-carboxy-2-oxopyrrolidin-3-ylmethyl)pyridinium acetate]: the “Solubility (in words)” value is “only soluble in water and methanol”.
